Laboratory results as given in US20240398828A1, “HETERO-ATOM CONTAINING COMPOUNDS AND USES THEREOF” (Kumquat Biosciences Inc., priority 2021, published 2024).

Key:
[1] = target: T1, PTPN2 (i.e., TC-PTP) (Homo sapiens, UniProt P17706); assay: Phosphatase activity assay (DiFMUP substrate), PTPN2; type: biochemical; conditions: compounds binned ≤1 uM or >1 uM
T1 sequence (P17706 1-415): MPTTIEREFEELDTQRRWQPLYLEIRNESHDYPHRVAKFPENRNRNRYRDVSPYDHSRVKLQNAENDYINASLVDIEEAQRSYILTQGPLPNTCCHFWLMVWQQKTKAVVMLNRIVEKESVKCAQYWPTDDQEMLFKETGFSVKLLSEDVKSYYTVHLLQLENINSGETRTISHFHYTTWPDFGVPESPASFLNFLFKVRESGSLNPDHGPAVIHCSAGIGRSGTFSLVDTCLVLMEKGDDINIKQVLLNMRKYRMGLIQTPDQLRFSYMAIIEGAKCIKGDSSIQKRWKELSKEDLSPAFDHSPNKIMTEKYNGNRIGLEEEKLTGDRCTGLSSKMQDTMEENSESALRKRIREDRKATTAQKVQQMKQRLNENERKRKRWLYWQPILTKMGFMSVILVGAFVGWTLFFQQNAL
Procedure, shortened: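 Using a Km-level DiFMUP substrate and 0.025 ng/ul PTPN2, phosphatase activity is tracked by DiFMU emission at 450 nm over about 15–30 minutes. Initial rates at ten inhibitor concentrations give IC50 by four-parameter fitting.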

[2] = target: T2, PTPN1 (i.e., PTP1B) (Homo sapiens, UniProt P18031); assay: Phosphatase activity assay (DiFMUP substrate), PTP1B; type: biochemical; conditions: compounds binned ≤1 uM or >1 uM
T2 sequence (P18031 1-435): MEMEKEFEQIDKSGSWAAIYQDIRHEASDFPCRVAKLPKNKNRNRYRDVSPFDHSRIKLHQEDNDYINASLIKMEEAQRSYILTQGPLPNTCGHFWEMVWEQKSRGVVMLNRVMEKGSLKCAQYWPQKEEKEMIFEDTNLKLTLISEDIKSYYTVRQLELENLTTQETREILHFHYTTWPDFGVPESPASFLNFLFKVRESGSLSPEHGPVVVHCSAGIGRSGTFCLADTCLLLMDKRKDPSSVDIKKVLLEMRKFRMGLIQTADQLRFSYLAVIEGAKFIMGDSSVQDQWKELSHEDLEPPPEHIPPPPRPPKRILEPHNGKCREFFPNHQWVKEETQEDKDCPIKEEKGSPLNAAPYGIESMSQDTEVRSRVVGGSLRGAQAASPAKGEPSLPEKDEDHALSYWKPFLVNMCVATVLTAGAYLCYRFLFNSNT
Procedure, shortened: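 Enzyme (e.g. PTPN2 0.025 ng/ul) mixed about 2 min with compound at 10 serial concentrations in 50 mM HEPES pH 7.5, 150 mM NaCl, 0.5 mM EDTA, 1 mM DTT, 0.001% Tween-20 at room temperature. DiFMUP added at each enzyme's Km (about 45 μM for PTPN2). DiFMU fluorescence (ex 360/em 450 nm) followed 15-30 min; IC50 from 4-parameter fit of rates.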

| Structure (SMILES) | IC50 [1] | IC50 [2] |
| --- | --- | --- |
| CC(C)CCC1C=C(c2ccc(O)c(N3CC(=O)NS3(=O)=O)c2F)CN1 (stereo not shown) [Compound 541, 5-(2-fluoro-6-hydroxy-3-(5-isopentyl-2,5-dihydro-1H-pyrrol-3-yl)phenyl)-1,2,5-thiadiazolidin-3-one 1,1-dioxide] | ≤ 1000 nM | ≤ 1000 nM |
| O=C1CN(c2c(O)ccc(-c3cnn(C4(C(F)F)CC4)c3)c2F)S(=O)(=O)N1 [Compound 542, 5-(3-(1-(1-(difluoromethyl)cyclopropyl)-1H-pyrazol-4-yl)-2-fluoro-6-hydroxyphenyl)-1,2,5-thiadiazolidin-3-one 1,1-dioxide] | ≤ 1000 nM | ≤ 1000 nM |
| CNC(=O)n1nc(-c2ccc(O)c(N3CC(=O)NS3(=O)=O)c2F)cc1C1CC1 [Compound 543, 5-cyclopropyl-3-(3-(1,1-dioxido-4-oxo-1,2,5-thiadiazolidin-2-yl)-2-fluoro-4-hydroxyphenyl)-N-methyl-1H-pyrazole-1-carboxamide] | ≤ 1000 nM | ≤ 1000 nM |
| CC(C)CCN1CC=C(c2ccc(O)c(N3CC(=O)NS3(=O)=O)c2F)C1 [Compound 544, 5-(2-fluoro-6-hydroxy-3-(1-isopentyl-2,5-dihydro-1H-pyrrol-3-yl)phenyl)-1,2,5-thiadiazolidin-3-one 1,1-dioxide] | ≤ 1000 nM | ≤ 1000 nM |
| COC(=O)n1nc(C2CC2)cc1-c1ccc(O)c(N2CC(=O)NS2(=O)=O)c1F [Compound 545, methyl 3-cyclopropyl-5-(3-(1,1-dioxido-4-oxo-1,2,5-thiadiazolidin-2-yl)-2-fluoro-4-hydroxyphenyl)-1H-pyrazole-1-carboxylate] | ≤ 1000 nM | ≤ 1000 nM |

The remaining lines, values ahead:

| IC50 [1] | IC50 [2] | Structure (SMILES) |
| --- | --- | --- |
| ≤ 1000 nM | ≤ 1000 nM | N#CNC(=N)N1CCC=C(c2ccc(O)c(N3CC(=O)NS3(=O)=O)c2F)C1 [Compound 535, N-cyano-5-(3-(1,1-dioxido-4-oxo-1,2,5-thiadiazolidin-2-yl)-2-fluoro-4-hydroxyphenyl)-3,6-dihydropyridine-1(2H)-carboximidamide] |
| ≤ 1000 nM | ≤ 1000 nM | COC(=O)n1nc(-c2ccc(O)c(N3CC(=O)NS3(=O)=O)c2F)cc1C1CC1 [Compound 536, methyl 5-cyclopropyl-3-(3-(1,1-dioxido-4-oxo-1,2,5-thiadiazolidin-2-yl)-2-fluoro-4-hydroxyphenyl)-1H-pyrazole-1-carboxylate] |
| ≤ 1000 nM | ≤ 1000 nM | O=C1CN(c2c(O)ccc(-c3cnn(C(=O)C4CC4)c3)c2F)S(=O)(=O)N1 [Compound 537, 5-(3-(1-(cyclopropanecarbonyl)-1H-pyrazol-4-yl)-2-fluoro-6-hydroxyphenyl)-1,2,5-thiadiazolidin-3-one 1,1-dioxide] |
| ≤ 1000 nM | ≤ 1000 nM | O=C1CN(c2c(O)ccc(-c3cc(C4CC4(F)F)nn3C(F)F)c2F)S(=O)(=O)N1 (stereo not shown) [Compound 538, 5-(3-(3-(2,2-difluorocyclopropyl)-1-(difluoromethyl)-1H-pyrazol-5-yl)-2-fluoro-6-hydroxyphenyl)-1,2,5-thiadiazolidin-3-one 1,1-dioxide] |
| ≤ 1000 nM | ≤ 1000 nM | O=C1CN(c2c(O)ccc(C3=CC(CCC4CC4)NC3)c2F)S(=O)(=O)N1 (stereo not shown) [Compound 539, 5-(3-(5-(2-cyclopropylethyl)-2,5-dihydro-1H-pyrrol-3-yl)-2-fluoro-6-hydroxyphenyl)-1,2,5-thiadiazolidin-3-one 1,1-dioxide] |
| ≤ 1000 nM | ≤ 1000 nM | Cn1nc(-c2ccc(O)c(N3CC(=O)NS3(=O)=O)c2F)nc1C1CC1(F)F (stereo not shown) [Compound 540, 5-(3-(5-(2,2-difluorocyclopropyl)-1-methyl-1H-1,2,4-triazol-3-yl)-2-fluoro-6-hydroxyphenyl)-1,2,5-thiadiazolidin-3-one 1,1-dioxide] |
